“Also recorded” adds a separate entry of the source. Peptide text beside a SMILES is read from it. * marks the point of attachment. X1 = CCOC(=O)c1c(C)[nH]c(C(=O)*)c1C; X2 = CCOC(=O)c1[nH]c(C)c(C(=O)*)c1C
What was measured:
[1] = previously evaluated in vivo; cited from earlier work
Text: Parent compound FELL (Phe-Glu-Leu-Leu-OH) and four analogs of the tetrapeptide were previously evaluated in vivo for their analgesic activity.

male Wistar rats = assay: Nociceptive Paw Pressure test (Randall–Selitto test), analgesic activity; assay type: in vivo, rat; conditions: 0.25 mg/kg i.p.; for course of analgesic activity over time (in words) / analgesic activity (paw pressure thresholds): Figure 6; for analgesic activity (paw pressure thresholds): male Wistar rats, 8–10 per group, measured every 10 min from 10th to 50th min; for highest analgesic activity reached, as percent of that of the parent acid: BB20A vs acid A, BB19B vs acid B
Description: The male Wistar rats (180–200 g) were used for all experiments. All animals were kept at around 22 °C and under normal conditions. The experimental procedures are realized in the interval 10:00 a.m. to 1:00 p.m. and are approved by the Research Ethics Commission of the Medical University-Sofia.
(§1) Several groups of experimental animals were used. Each group contains 8–10 rats: • The control group receives 0.2 mL of saline intraperitoneally injected (i.p.); • Six experimental groups receiving one of the 6 tested substances (0.25 mg/kg, i.p.)—pyrrole acid A, pyrrole acid B, BB19A, BB19B, BB20A, and BB20B; • Four experimental groups receiving Naloxone (1 mg/kg, i.p.) before the administration of the newly synthesized bioconjugates BB19A, BB19B, BB20A, and BB20B; • Four experimental groups receiving AM251 (1.25 mg/kg, i.p.) before the administration of the newly synthesized bioconjugates BB19A, BB19B, BB20A, and BB20B.
(§2) An analgesiometer was used to measure the specific changes in the mechanical nociceptive thresholds (PPT) of experimental animals). A pressure was applied to the hind-paw and the value (g) required to elicit a nociceptive response (such as squeak or struggle) was taken as the mechanical nociceptive threshold. A cut-off value of 500 g was used to prevent damage of the paw. The targeted compounds were administrated and further nociception was evaluated each 10 min from the 10th min until the 50th min.
(§3) The results were statistically assessed by one-way analysis of variance followed by Newman-Keuls post hoc comparison test. One-Way ANOVA has been used to analyze the data. Values are represented in arbitrary units (AU) according to the scale, as mean ± S.E.M. Values of p < 0.05 were considered to indicate statistical significance.

cannabinoid receptor = assay: Paw pressure test after AM251 pretreatment; assay type: in vivo, rat; conditions: AM251 1.25 mg/kg i.p. before bioconjugate 0.25 mg/kg i.p.; for time points with paradoxically higher analgesia after AM251 pretreatment than without pretreatment: Figure 7
Description: as §1
(§4) Pretreatments with the non-selective opioid receptor antagonist Naloxone or the cannabinoid receptor antagonist AM251 were performed in order to estimate the types of receptors engaged in the effects observed—respectively, the opioid or the cannabinoid receptor [35].
as §2, §3

opioid receptor = assay: Paw pressure test after Naloxone pretreatment; assay type: in vivo, rat; conditions: Naloxone 1 mg/kg i.p. before bioconjugate 0.25 mg/kg i.p.; compared with no pretreatment; Figure 7
Description: as §1, §4, §2, §3

[2] = tested on: white blood cell accumulation in the bronchoalveolar fluid; conditions: cited from earlier work
Text: In this context, tetrapeptide sequence H-FELL-OH is known from the literature as an anti-inflammatory agent.

Phe-Glu-Leu-Leu-NH2 [C-terminal amide of the tetrapeptide FELL]
analgesic activity over time (in words) [1]: gradually increased analgesic activity with time

CCOC(=O)c1c(C)[nH]c(C(=O)O)c1C [acid A, 4-(Ethoxycarbonyl)-3,5-dimethyl-1H-pyrrole-2-carboxylic Acid]
duration of short-lasting analgesic activity (male Wistar rats): about 10 min | time window of short-lasting analgesic activity (male Wistar rats): between the 10th and 20th min | decrease of analgesic activity until the end of the estimated time (male Wistar rats; up to 50th min): 56%

CCOC(=O)c1c(C)[nH]c(C(=O)N[C@@H](Cc2ccccc2)C(=O)N[C@@H](CCC(=O)O)C(=O)N[C@@H](CC(C)C)C(=O)N[C@@H](CC(C)C)C(=O)O)c1C [BB20A, A-Phe-Glu-Leu-Leu-OH] (X1-FELL-OH)
involvement of cannabinoid receptors in the analgesic effect (AM251 pretreatment), in words (cannabinoid receptor): they “turn on” at a later stage—after the 20th minute | time points with paradoxically higher analgesia after AM251 pretreatment than without pretreatment (cannabinoid receptor): 10th min | analgesic activity after opioid receptor blockade (Naloxone pretreatment), in words (opioid receptor): Opioid receptors appear to be involved | course of analgesic activity over time (in words) (male Wistar rats; 10th to 50th min): decreased to control values | analgesic activity (paw pressure thresholds) (male Wistar rats): exhibited analgesic activity | highest analgesic activity reached, as percent of that of the parent acid (male Wistar rats): more than 87%

CCOC(=O)c1c(C)[nH]c(C(=O)N[C@@H](Cc2ccccc2)C(=O)N[C@@H](CCC(=O)O)C(=O)N[C@@H](CC(C)C)C(=O)N[C@@H](CC(C)C)C(N)=O)c1C [BB19A, A-Phe-Glu-Leu-Leu-NH2] (X1-FELL-NH2)
time points with paradoxically higher analgesia after AM251 pretreatment than without pretreatment (cannabinoid receptor): 10th min | analgesic activity after opioid receptor blockade (Naloxone pretreatment), in words (opioid receptor): significant analgesia that even initially exceeded that of the substances without the pretreatment; also recorded: naloxone-independent in the first phase and naloxone-dependent in the second | course of analgesic activity over time (in words) (male Wistar rats; 10th to 50th min): biphasic activity | analgesic activity on the 50th min compared with parent pyrrole acid (male Wistar rats; 50th min): exceeded the parent alpha acid | analgesic activity (paw pressure thresholds) (male Wistar rats): exhibited analgesic activity

CCOC(=O)c1[nH]c(C)c(C(=O)N[C@@H](Cc2ccccc2)C(=O)N[C@@H](CCC(=O)O)C(=O)N[C@@H](CC(C)C)C(=O)N[C@@H](CC(C)C)C(=O)O)c1C [BB20B, B-Phe-Glu-Leu-Leu-OH] (X2-FELL-OH)
involvement of cannabinoid receptors in the analgesic effect (AM251 pretreatment), in words (cannabinoid receptor): Cannabinoid receptors are also involved | analgesic activity after opioid receptor blockade (Naloxone pretreatment), in words (opioid receptor): Opioid receptors appear to be involved | analgesic activity / PPTs on the 10th min compared with parent pyrrole acid (male Wistar rats): equivalent to the parent beta acid’s ones | course of analgesic activity over time (in words) (male Wistar rats; 10th to 50th min): slowly decreased to control levels | analgesic activity (paw pressure thresholds) (male Wistar rats): exhibited analgesic activity

CCOC(=O)c1[nH]c(C)c(C(=O)O)c1C [acid B, 5-(Ethoxycarbonyl)-2,4-dimethyl-1H-pyrrole-3-carboxylic Acid]
duration of short-lasting analgesic activity (male Wistar rats): about 10 min | time window of short-lasting analgesic activity (male Wistar rats): between the 20th and 30th min | PPTs on the 50th min compared with controls (male Wistar rats; 50th min): almost equivalent to the controls’

Phe-Glu-Leu-Leu-OH [H-FELL-OH, parent tetrapeptide known as an anti-inflammatory agent]
analgesic activity over time (in words) [1]: constantly increasing analgesic activity for the total time of the evaluation | reduction of the total number of white blood cell accumulation in the bronchoalveolar fluid in lungs [2]: 51%

B-Phe-Glu-Leu-Leu-NH2 [BB19B, bioconjugate of pyrrole acid B and tetrapeptide FELL-NH2]
time points with paradoxically higher analgesia after AM251 pretreatment than without pretreatment (cannabinoid receptor): 10th, 20th, and 30th min | analgesic activity after opioid receptor blockade (Naloxone pretreatment), in words (opioid receptor): significant analgesia that even initially exceeded that of the substances without the pretreatment | analgesic activity / PPTs on the 10th min compared with parent pyrrole acid (male Wistar rats): more significant than the parent beta acid | variation of analgesic activity during the whole time of the experiment (male Wistar rats; 10th to 50th min): less than 7% | course of analgesic activity over time (in words) (male Wistar rats; 10th to 50th min): sustained analgesic activity | analgesic activity on the 50th min compared with parent pyrrole acid (male Wistar rats; 50th min): more significant than the parent beta acid | analgesic activity (paw pressure thresholds) (male Wistar rats): exhibited analgesic activity | highest analgesic activity reached, as percent of that of the parent acid (male Wistar rats): 64.4%

Source: publication PMC10740831, “Synthesis, Hydrolytic Stability and In Vivo Biological Study of Bioconjugates of the Tetrapeptides FELL Containing Pyrrole Moiety” (Biomedicines, 2023)
